Test results reported in PubChem BioAssay (NCI).
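Interpolation was linear, between the two tested concentrations surrounding the appropriate level; five concentrations were tested over 48 hours in 96-well plates. GI50 marks 50% less growth. The concentration for full growth arrest is given as TGI.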

How the values were obtained:
Assay in all cases: DTP human tumour cell line panel, 48 h
COLO 205 colon = test system: COLO 205 colon
NCI-H460 lung = test system: NCI-H460 lung
SN12C renal = test system: SN12C renal
TK-10 renal = test system: TK-10 renal
HS 578T breast = test system: HS 578T breast
T-47D breast = test system: T-47D breast
EKVX NSCLC = test system: EKVX NSCLC
SF-539 CNS = test system: SF-539 CNS
U251 CNS = test system: U251 CNS
A549 NSCLC = test system: A549 NSCLC
IGROV1 ovarian = test system: IGROV1 ovarian
MDA-N = test system: MDA-N
ACHN renal = test system: ACHN renal
UO-31 renal = test system: UO-31 renal
PC-3 prostate = test system: PC-3 prostate
SW-620 colon = test system: SW-620 colon
SR leukemia = test system: SR leukemia
NCI-H522 lung = test system: NCI-H522 lung

Compound	TGI (COLO 205 colon) [µM]	TGI (NCI-H460 lung) [µM]	TGI (SN12C renal) [µM]	TGI (TK-10 renal) [µM]	TGI (HS 578T breast) [µM]	TGI (T-47D breast) [µM]	TGI (EKVX NSCLC) [µM]	TGI (SF-539 CNS) [µM]	TGI (U251 CNS) [µM]	TGI (A549 NSCLC) [µM]	TGI (IGROV1 ovarian) [µM]	TGI (MDA-N) [µM]	TGI (ACHN renal) [µM]	TGI (UO-31 renal) [µM]	TGI (PC-3 prostate) [µM]	TGI (SW-620 colon) [µM]	GI50 (SR leukemia) [µM]	TGI (SR leukemia) [µM]	GI50 (NCI-H522 lung) [µM]	TGI (NCI-H522 lung) [µM]
C/C(=C\c1ccccc1)n1c(=O)cc(C)n1C	> 100	> 100	> 100	> 100	> 100	> 100	> 100	> 100	> 100	> 100	> 100	> 100	> 100	> 100	> 100	> 100				
H-KIFKKFKTIIKKVWRIFGRF-NH2																	2.72	> 100	2.34	> 100
